From patent US10131652B2, “Pyrimidinyloxy benzene derivatives as herbicides” (E. I. DU PONT DE NEMOURS AND COMPANY, priority 2014, dated 2018)
Read-outs that look alike come from different tables or passages of the source.

Key:
Format in all cases: in vivo
[1] = system: barnyardgrass (Echinochloa crus-galli); assay: Test B pre-/postemergence plant response; conditions: Echinochloa crus-galli, 240 h, read-out: Plant response rating, Barnyardgrass; for pest or weed control at 125 g/ha: 125 g ai/ha; for pest or weed control at 500 g/ha: 500 g ai/ha
Summary of the method: (§1)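 Ratings reflect visual injury versus untreated controls, from 0 for no effect to 100 for complete control, assessed roughly 10 days after treatment. Formulation: non-phytotoxic solvent mix with surfactant; pre- and postemergence sprays on plants grown in loam soil and sand.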

corn (Zea mays) [2] = assay: Test B pre-/postemergence plant response; conditions: Zea mays, post-emergence, 240 h
Summary of the method: as §1

[3] = system: giant foxtail (Setaria faberii); assay: Test B pre-/postemergence plant response; conditions: Setaria faberi, 240 h, read-out: Plant response rating, Foxtail, Giant; for pest or weed control at 125 g/ha: 125 g ai/ha; for pest or weed control at 500 g/ha: 500 g ai/ha
Summary of the method: as §1

[4] = system: pigweed (Amaranthus retroflexus); assay: Test B pre-/postemergence plant response; conditions: Amaranthus retroflexus, 240 h, read-out: Plant response rating, Pigweed; for pest or weed control at 125 g/ha: 125 g ai/ha; for pest or weed control at 500 g/ha: 500 g ai/ha
Summary of the method: as §1

[5] = system: wheat (Triticum aestivum); assay: Test B pre-/postemergence plant response; conditions: Triticum aestivum, post-emergence, 240 h, read-out: Plant response rating, Wheat
Summary of the method: as §1

[6] = system: Italian ryegrass (Lolium multiflorum); assay: Test D pre-/postemergence plant response; conditions: Lolium multiflorum; for pest or weed control at 16 g/ha: 16 g ai/ha; for pest or weed control at 31 g/ha: 31 g ai/ha; for pest or weed control at 62 g/ha: 62 g ai/ha; for pest or weed control at 125 g/ha: 125 g ai/ha
Summary of the method: (§2)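 Preemergence: seeds in loam/sand blend treated with test chemicals in non-phytotoxic solvent with surfactant; postemergence: plants at 2–18 cm (1- to 4-leaf stage) in peat-based medium sprayed likewise. Greenhouse 13 to 15 days, then visual rating vs controls, 0 (no effect) to 100 (complete control).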

[7] = system: barnyardgrass (Echinochloa crus-galli); assay: Test D pre-/postemergence plant response; conditions: Echinochloa crus-galli; for pest or weed control at 16 g/ha: 16 g ai/ha; for pest or weed control at 16 g/ha / pest or weed control at 31 g/ha: scale 0 to 100 (0 no effect, 100 complete control); for pest or weed control at 31 g/ha: 31 g ai/ha; for pest or weed control at 62 g/ha: 62 g ai/ha; for pest or weed control at 125 g/ha: 125 g ai/ha
Summary of the method: as §2

[8] = system: blackgrass (Alopecurus myosuroides); assay: Test D pre-/postemergence plant response; conditions: Alopecurus myosuroides; for pest or weed control at 16 g/ha: 16 g ai/ha; for pest or weed control at 31 g/ha: 31 g ai/ha; for pest or weed control at 62 g/ha: 62 g ai/ha; for pest or weed control at 125 g/ha: 125 g ai/ha
Summary of the method: as §2

corn (Zea mays) [9] = assay: Test D pre-/postemergence plant response; conditions: Zea mays; for Corn plant response rating (crop injury, 0 = no effect, 100 = complete kill) at 62 g/ha: 62 g ai/ha
Summary of the method: as §2

[10] = system: galium (catchweed bedstraw, Galium aparine); assay: Test D pre-/postemergence plant response; conditions: Galium, post-emergence, Postemergence
Summary of the method: as §2

[11] = post-emergence, postemergence, 0 to 100 scale, 0 no effect, 100 complete control
[12] = post-emergence, Postemergence, 0 to 100 scale (0 no effect, 100 complete control)
[13] = pre-emergence, Preemergence, 0 to 100 scale where 0 is no effect and 100 is complete control
[14] = 125 g ai/ha, postemergence, 0 to 100 scale, 0 no effect, 100 complete control
[15] = Postemergence, 500 g ai/ha, 0 to 100 scale (0 no effect, 100 complete control)
[16] = post-emergence, Postemergence, scale 0 to 100 (0 no effect, 100 complete control), read-out: Ryegrass, Italian plant response rating
[17] = post-emergence, Postemergence, scale 0 to 100, 0 no effect, 100 complete control, read-out: Plant response rating, Ryegrass, Italian
[18] = pre-emergence, Preemergence, scale 0 to 100 (0 no effect, 100 complete control), read-out: Plant response rating, Ryegrass, Italian
[19] = post-emergence, Postemergence, read-out: Barnyardgrass plant response rating
[20] = post-emergence, Postemergence, scale 0 to 100, 0 no effect, 100 complete control, read-out: Plant response rating, Barnyardgrass
[21] = pre-emergence, Preemergence, read-out: Plant response rating (scale 0 to 100), Barnyardgrass
[22] = pre-emergence, Preemergence, read-out: Plant response rating, Barnyardgrass
[23] = post-emergence, Postemergence, scale 0 to 100 (0 no effect, 100 complete control), read-out: Blackgrass plant response rating
[24] = post-emergence, Postemergence, scale 0 to 100, 0 no effect, 100 complete control, read-out: Plant response rating, Blackgrass
[25] = pre-emergence, Preemergence, scale 0 to 100 (0 no effect, 100 complete control), read-out: Plant response rating, Blackgrass

FC(F)c1cc(-c2ccccc2Oc2ncc(Cl)cn2)on1 [Compound 53, 5-chloro-2-[2-[3-(difluoromethyl)-5-isoxazolyl]phenoxy]pyrimidine]
5%: pest or weed control at 31 g/ha [6, 16] | pest or weed control at 62 g/ha [6, 17] | pest or weed control at 125 g/ha [6, 17] | pest or weed control at 16 g/ha [7, 19] | pest or weed control at 31 g/ha [7, 22] | pest or weed control at 16 g/ha [8, 23] | pest or weed control at 16 g/ha [8, 25] | plant injury at 125 g/ha (corn (Zea mays) [9]; pre-emergence, Preemergence, 125 g ai/ha, read-out: Plant response rating (scale 0 to 100), Corn) | Corn plant response rating (crop injury, 0 = no effect, 100 = complete kill) at 16 g/ha (corn (Zea mays) [9]; pre-emergence, Preemergence, 16 g ai/ha, scale 0 to 100 (0 no effect, 100 complete control))
60%: pest or weed control at 125 g/ha ([6]; pre-emergence, Preemergence, read-out: Plant response rating (scale 0 to 100), Ryegrass, Italian) | pest or weed control at 16 g/ha ([10]; 16 g ai/ha, scale 0 to 100 (0 no effect, 100 complete control), read-out: Galium plant response rating)
20%: pest or weed control at 62 g/ha [8, 24]
30%: pest or weed control at 125 g/ha [8, 24]
85%: pest or weed control at 31 g/ha ([10]; 31 g ai/ha, scale 0 to 100 (0 no effect, 100 complete control), read-out: Galium plant response rating)
25%: pest or weed control at 62 g/ha [7, 20] | pest or weed control at 31 g/ha [8, 25]
80%: plant injury at 500 g/ha [5, 15]
15%: pest or weed control at 62 g/ha [6, 18]
10%: Corn plant response rating (crop injury, 0 = no effect, 100 = complete kill) at 125 g/ha (corn (Zea mays) [2]; [14]) | pest or weed control at 31 g/ha [6, 18] | pest or weed control at 31 g/ha [7, 19] | Corn plant response rating (crop injury, 0 = no effect, 100 = complete kill) at 31 g/ha (corn (Zea mays) [9]; pre-emergence, Preemergence, 31 g ai/ha, scale 0 to 100 (0 no effect, 100 complete control))
40%: plant injury at 125 g/ha [5, 14] | pest or weed control at 62 g/ha [7, 21] | pest or weed control at 31 g/ha [8, 23]
70%: Corn plant response rating (crop injury, 0 = no effect, 100 = complete kill) at 500 g/ha (corn (Zea mays) [2]; [15])
90%: pest or weed control at 125 g/ha [1, 13] | pest or weed control at 125 g/ha [3, 13] | pest or weed control at 62 g/ha [8, 25] | pest or weed control at 125 g/ha ([10]; 125 g ai/ha, scale 0 to 100, 0 no effect, 100 complete control, read-out: Plant response rating, Galium)
35%: pest or weed control at 125 g/ha [7, 20]
0%: pest or weed control at 16 g/ha [6, 16] | pest or weed control at 16 g/ha [6, 18] | pest or weed control at 16 g/ha [7, 22] | plant injury at 16 g/ha (corn (Zea mays) [9]; post-emergence, Postemergence, 16 g ai/ha, scale 0 to 100 (0 no effect, 100 complete control), read-out: Corn plant response rating) | plant injury at 31 g/ha (corn (Zea mays) [9]; post-emergence, Postemergence, 31 g ai/ha, scale 0 to 100 (0 no effect, 100 complete control), read-out: Corn plant response rating) | Corn plant response rating (crop injury, 0 = no effect, 100 = complete kill) at 62 g/ha (corn (Zea mays) [9]; post-emergence, Postemergence, scale 0 to 100, 0 no effect, 100 complete control) | Corn plant response rating (crop injury, 0 = no effect, 100 = complete kill) at 125 g/ha (corn (Zea mays) [9]; post-emergence, Postemergence, 125 g ai/ha, scale 0 to 100, 0 no effect, 100 complete control)
95%: pest or weed control at 125 g/ha [7, 21] | pest or weed control at 125 g/ha ([8]; pre-emergence, Preemergence, read-out: Plant response rating (scale 0 to 100), Blackgrass) | pest or weed control at 62 g/ha ([10]; 62 g ai/ha, scale 0 to 100, 0 no effect, 100 complete control, read-out: Plant response rating, Galium)
100%: pest or weed control at 125 g/ha [1, 11] | pest or weed control at 500 g/ha [1, 12] | pest or weed control at 500 g/ha [1, 13] | pest or weed control at 125 g/ha [3, 11] | pest or weed control at 500 g/ha [3, 12] | pest or weed control at 500 g/ha [3, 13] | pest or weed control at 125 g/ha [4, 11] | pest or weed control at 500 g/ha [4, 12] | pest or weed control at 125 g/ha [4, 13] | pest or weed control at 500 g/ha [4, 13] | Corn plant response rating (crop injury, 0 = no effect, 100 = complete kill) at 62 g/ha (corn (Zea mays) [9]; pre-emergence, Preemergence, scale 0 to 100 (0 no effect, 100 complete control))
